Laboratory results as given in US20030096760A1, “Method of antagonizing the human SRC SH2 domain” (SmithKlineBeecham Corporation, priority 1997, published 2003).
*1 amine or outer side, *2 acyl side, *3 side chain or, on linkers, in order; H or OH if unused. Where a SMILES comes first, the peptide text is derived from it. [ ]: non-standard residue; d: D form. X1 = O=C1OC(O)c2cc(C[C@H](N[*:1])C(=O)[*:2])ccc21

Target: T1, human src SH2 domain (Homo sapiens, UniProt P12931)
T1 construct: made in house; host or cells: E. coli strain AR120 (vector pEA1KnRBS3)
T1 sequence (P12931 151-248 limits assumed): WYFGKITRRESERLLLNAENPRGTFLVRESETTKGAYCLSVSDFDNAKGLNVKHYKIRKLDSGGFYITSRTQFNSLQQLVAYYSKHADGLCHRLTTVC
Experiment: ELISA-based binding assay of human src SH2 domain fusion protein and biotinylated pY peptide
Settings: DET1-DET2-spacer-ek-src SH2 fusion protein; 0.1 uM biotinylated pY peptide; 3 hr at 4° C.; read-out: Activity at cloned human Src SH2 domain (IC50)
Procedure: The inhibitory activity of compounds at the human src SH2 domain was determined in vitro using the human src SH2 domain expressed as fusion proteins in E. coli.
The fusion protein containing the human SH2 domain was expressed as the general sequence: DET1-DET2-spacer-ek-SH2, where DET1, DET2, spacer, ek and SH2 are as described below. DET1 (“defined epitope tag 1”) (SEQ ID NO: 1) is an 11 amino acid sequence found in the Human Immunodeficiency Virus Type 1 (HIV-1) envelope protein gp120 (or gp160). Monoclonal antibodies to various epitopes of HIV-1 gp120 (or gp160) are known in the art, see, for example U.S. Pat. No. 5,166,050. One preferred example is monoclonal antibody 178.1 (see, e.g., Thiriart et al., J. Immunol., 143:1832-1836 (1989)), which was prepared by immunization of mice with a yeast-expressed HIV-1 gp160 molecule from strain BH10 (Ratner et al., Nature, 313:277-284 (1985)). This tag was used for detection of expression (by Western blot), for purification of the protein (by affinity chromatography), and for configuring assays in which the fusion protein was captured or immobilized using the 178.1 antibody. DET2 is a hexa-histidine sequence tag (SEQ ID NO: 2) which binds to nickel-containing resins and was used for purification purposes. Spacer (SEQ ID NO: 3) was utilized to design a BamH1 restriction site at the indicated position of the construct. […]

IC50: 250 nM
SMILES: CC[C@H](C)[C@H](NC(=O)[C@H](CCC(=O)O)NC(=O)[C@H](CCC(=O)O)NC(=O)[C@H](Cc1ccc2c(c1)C(O)OC2=O)NC(C)=O)C(=O)N[C@@H](CCC(=O)O)C(N)=O (stereo partly drawn) [Compound 1, (S)-alpha-(acetylamino)-1,3-dihydro-3-hydroxy-1-oxo-5-isobenzofuranpropanamido-glutamate-glutamate-isoleucine-glutamate-amine] (Ac-[X1]EEIE-NH2)
